Results on two molecules are retold here after patent US11261220B2, “Salmonella siiE-derived peptides for manipulation of long-lived plasma cells” (DEUTSCHES RHEUMA-FORSCHU[…], priority 2017, dated 2022).

In test [1] the test system is anti-DNA IgG-secreting plasma cells in the BM. The test can be described thus: Murine model of systemic lupus erythematosus, anti-DNA IgG ELISpot in BM. It is filed as in vivo. To be noted: NZB/VV Fl female mice 5-6 months old, i.p. 100 μg on days 0, 3, 7 and 10, ELISpot on day 11. On the procedure: FIG. 15. SiiE129 peptide reduce numbers of DNA-specific IgG-secreting plasma cells in the bone marrow. […] NZB/VV Fl female mice (5-6 months old) received i.p. 100 μg peptide coding SiiE amino acid 129-168 on days 0, 3, 7 and 10 and on day 11 were analyzed for anti-DNA IgG-secreting cells in the BM by ELISpot assay. n=5-6. The data are representative of two independent experiments.
NZB/VV Fl female mice (5-6 months old) received i.p. 100 μg peptide coding SiiE amino acid 129-168 on days 0, 3, 7 and 10 and on day 11 were analyzed for anti-DNA IgG-secreting cells in the BM by ELISpot assay.

For test [2], the system named is BM IgG-secreting plasma cells. Kind of test: ELISpot count of Ig-secreting cells the day after i.p. SiiE peptide. Type of test: in vivo. To be noted: C57BL/6 mice, i.p. 100 μg peptide, analyzed on the next day. Here is the method:
FIG. 5. Identification of the microbial component reducing numbers of BM IgG-secreting plasma cells. (A) Salmonella colonizes in the spleen and liver but not in the BM. The CFU of Salmonella in the spleen, liver and BM of Salmonella-infected mice on day 4 after infection was counted. The dotted line represents the limit of detection. n=3-6. […] C57BL/6 mice received 200 μl of LB medium, untreated or LPS-depleted culture supernatants from flagellin-deficient attenuated Salmonella or Escherichia coli (ΔLonΔFIhD) and on the next day (24 h later) were analyzed for IgG-secreting cells by ELISpot assay. n=8. […] Mice were infected i.p. with 200 μl of LB and LPS-depleted supernatant from flagellin-deficient attenuated Salmonella on day 41 and analyzed for IgG-secreting cells on the next day. n=6. […] C57BL/6 mice received i.p. 200 μl of LB medium and LPS-depleted supernatants from attenuated Salmonella ΔLon or ΔLonΔSiiE and on the next day were analyzed for IgG-secreting cells by ELISpot assay. n=5. […] C57BL/6 mice received i.p. 100 μg peptide coding SiiE amino acid 129-168 and on the next day were analyzed for IgG- and IgM-secreting cells in the BM and spleen. n=5. […] BM or splenic cells from C57BL/6 mice were incubated with 30 μg/ml of GST-SiiE 97-170 or GST protein, stained with anti-GST antibodies, and analyzed by flow cytometry. n=3. […] Adherent cells were counted after washing.

Test [3] has as its system B cells and IgG-secreting plasma cells in the BM. The conditions noted are these: i.p. twice a day 5 μg for 4 days.
Experimental: C57BL/6 mice were injected i.p. twice a day with 5 μg of AMD3100 for 4 days. B220+cells and IgG-secreting plasma cells were analyzed on day 4 by flow cytometry (H) and by ELISpot assay (I), respectively. n=5-6. The data are representative of at least two independent experiments. *p<0.05, **p<0.01, ***p<0.001.
To count Ig-secreting cells, MultiScreen filter plates with PVDF membrane (Merck) were activated for 1 min with 35% ethanol followed by washing and were coated with 7.2 μg/ml of goat anti-mouse Ig, F(ab′)2 fragment (Jackson ImmunoResearch) overnight at 4° C. After washing and blocking with RPMI1640/10% FCS, diluted fresh cells were added and incubated for 5 h at 37° C. Following incubation, alkaline phosphatase-conjugated anti-IgG, IgG1, IgM or IgA (Southern Biotech) was added for 1 h at 37° C. and spots were visualized with BCIP/NBT Plus substrate (Mabtech) and were counted by ELISpot reader (AID).

As to “KEADKAKEEAEKAKEAAEKALNEAFEVQNSSKQIEEMLQN (listed as Salmonella enterica) [SiiE 129-168]”, the “number of anti-DNA IgG-secreting cells in bone marrow” value in test [1] is recorded as “reduces the number of Anti-DNA IgG-secreting cells in bone marrow”; in test [1] (listed as SiiE129 peptide), “reduces numbers of anti-DNA IgG-secreting plasma cells in the BM”. Moreover, the “numbers of BM IgG-secreting plasma cells” value is given as “markedly reduced numbers of BM IgG-secreting plasma cells” in test [2] and “reduces numbers of BM IgG-secreting plasma cells” in test [2] (listed as peptide coding SiiE amino acid 129-168).
As to `c1cc(CN2CCCNCCNCCCNCC2)ccc1CN1CCCNCCNCCCNCC1` [AMD3100], the “B cell numbers in the BM” value in test [3] (B220+ cells by flow cytometry on day 4) was “numerically reduces B cells”. The “numbers of IgG-secreting plasma cells in the BM” value in test [3] (ELISpot on day 4) is “but not IgG-secreting plasma cells in the BM”.
